Reference: PubChem BioAssay (NCI)
“And” between values parts separate entries of the source, which are not always exact repeats. Identical values can stand only once.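 Values below derive from 48-hour exposures of cells grown in 96-well plates, with endpoints linearly interpolated between the two concentrations bracketing the appropriate inhibition level. GI50 is the concentration that inhibits growth by half. TGI marks complete inhibition of growth.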

Experiments:
Assay in all cases: growth of human tumour cells (NCI), 48 h
CCRF-CEM leukemia = test system: CCRF-CEM leukemia
OVCAR-8 ovarian = test system: OVCAR-8 ovarian
CAKI-1 renal = test system: CAKI-1 renal
KM12 colon = test system: KM12 colon
SK-MEL-2 melanoma = test system: SK-MEL-2 melanoma
786-0 renal = test system: 786-0 renal
SNB-19 CNS = test system: SNB-19 CNS
ACHN renal = test system: ACHN renal
T-47D breast = test system: T-47D breast
MCF7 breast = test system: MCF7 breast

N#CCCN(CCC#N)c1ccc(/C=C(/NC(=O)c2cc([N+](=O)[O-])ccc2Cl)C(=O)NN)cc1
TGI (CCRF-CEM leukemia): > 100 µM
TGI (OVCAR-8 ovarian): > 100 µM
TGI (CAKI-1 renal): > 100 µM
TGI (KM12 colon): > 100 µM
TGI (SK-MEL-2 melanoma): > 100 µM
TGI (786-0 renal): > 100 µM
TGI (SNB-19 CNS): > 100 µM
TGI (ACHN renal): > 100 µM

NC1N=Nc2ccccc21 (centres undefined)
TGI (CCRF-CEM leukemia): > 100 µM
TGI (OVCAR-8 ovarian): > 100 µM
TGI (CAKI-1 renal): > 100 µM
TGI (KM12 colon): > 100 µM
TGI (SK-MEL-2 melanoma): > 100 µM
TGI (786-0 renal): > 100 µM
TGI (SNB-19 CNS): > 100 µM
TGI (ACHN renal): > 100 µM

CCc1ccccc1NC(=O)C(=O)C(C#N)c1ccccc1Cl (centres undefined)
TGI (CCRF-CEM leukemia): > 100 µM
TGI (OVCAR-8 ovarian): > 100 µM
TGI (KM12 colon): > 100 µM
TGI (SK-MEL-2 melanoma): > 100 µM
TGI (786-0 renal): > 100 µM
TGI (SNB-19 CNS): > 100 µM
TGI (ACHN renal): > 100 µM

COc1ccc(Nc2nc3cc(C(F)(F)F)ccc3nc2-c2ccccc2)cc1OC
TGI (CCRF-CEM leukemia): > 100 µM
TGI (OVCAR-8 ovarian): > 100 µM
TGI (CAKI-1 renal): 68.8 µM
TGI (KM12 colon): > 100 µM
TGI (SK-MEL-2 melanoma): > 100 µM
TGI (786-0 renal): > 100 µM
TGI (ACHN renal): > 100 µM

Cc1cc(=O)[nH]c(CNC(=O)c2ccc3ccccc3c2)n1
TGI (CCRF-CEM leukemia): > 100 µM
TGI (OVCAR-8 ovarian): > 100 µM
TGI (CAKI-1 renal): > 100 µM
TGI (KM12 colon): > 100 µM
TGI (SK-MEL-2 melanoma): > 100 µM
TGI (786-0 renal): > 100 µM
TGI (SNB-19 CNS): > 100 µM
TGI (ACHN renal): > 100 µM

c1ccc2c(c1)SC(=C1Sc3ccccc3S1)S2
TGI (CCRF-CEM leukemia): > 100 µM
TGI (OVCAR-8 ovarian): > 100 µM
TGI (CAKI-1 renal): > 100 µM
TGI (786-0 renal): > 100 µM
TGI (SNB-19 CNS): > 100 µM
TGI (ACHN renal): > 100 µM

CC1=C/C=C/C(=O)O[C@@H]([C@H](C)[C@H](O)[C@@H](C)NC(=O)C(C)C)[C@H](C)/C=C/C(C)=C/[C@H]2C=CCC[C@@]2(C)\C=C\1
GI50 (CCRF-CEM leukemia): 5170 nM and 2260 nM
TGI (CCRF-CEM leukemia): 17.6 µM
GI50 (OVCAR-8 ovarian): 3.17 µM and 0.989 µM
TGI (OVCAR-8 ovarian): 34.2 µM
GI50 (KM12 colon): 518 nM and 343 nM
TGI (KM12 colon): > 42.3 µM
GI50 (SK-MEL-2 melanoma): 6980 nM
TGI (SK-MEL-2 melanoma): 20.4 µM
GI50 (786-0 renal): 0.506 µM and 0.147 µM
TGI (786-0 renal): 8.06 µM
GI50 (T-47D breast): 112 nM and 132 nM
TGI (T-47D breast): 36.6 µM
GI50 (MCF7 breast): 74.6 nM and 38.2 nM
TGI (MCF7 breast): 23.7 µM
GI50 (SNB-19 CNS): 2010 nM and 736 nM
TGI (SNB-19 CNS): 25.9 µM
GI50 (ACHN renal): 136 nM
TGI (ACHN renal): 6.98 µM

[O-]/N=[N+](/[O-])C1CCCCC1=[N+]1CCOCC1 (centres undefined)
TGI (CCRF-CEM leukemia): > 100 µM
TGI (OVCAR-8 ovarian): > 100 µM
TGI (CAKI-1 renal): > 100 µM
TGI (KM12 colon): > 100 µM
TGI (SK-MEL-2 melanoma): > 100 µM
TGI (786-0 renal): > 100 µM
TGI (SNB-19 CNS): > 100 µM
TGI (ACHN renal): > 100 µM

N/C=N/S(=O)(=O)c1ccc(NC(=O)COC(=O)c2cccc3c(=O)c4ccccc4[nH]c23)cc1
TGI (CCRF-CEM leukemia): > 100 µM
TGI (OVCAR-8 ovarian): > 100 µM
TGI (KM12 colon): > 100 µM
TGI (786-0 renal): > 100 µM
TGI (SNB-19 CNS): > 100 µM
TGI (ACHN renal): > 100 µM

COc1cc2c(c(O)c1Cl)C(=O)c1c(O)cc(C[C@H](C)O)cc1[C@H]2[C@H]1c2cc(C[C@H](C)O)cc(O)c2C(=O)c2c1cc(OC)c(Cl)c2O
TGI (CCRF-CEM leukemia): 75 µM and > 100 µM
TGI (OVCAR-8 ovarian): 75 µM and > 100 µM
TGI (CAKI-1 renal): 11.4 µM and > 100 µM
TGI (KM12 colon): 75 µM and > 100 µM
GI50 (786-0 renal): 3.21 µM and 30.3 µM
TGI (786-0 renal): 75 µM and > 100 µM
TGI (MCF7 breast): 75 µM and 94.4 µM
TGI (SNB-19 CNS): 75 µM and > 100 µM

CN1C(=O)CC2(C)c3cc(O)cc(Br)c3N(C)C12 (centres undefined)
TGI (CCRF-CEM leukemia): > 100 µM
TGI (OVCAR-8 ovarian): > 100 µM
TGI (KM12 colon): > 100 µM
TGI (SK-MEL-2 melanoma): > 100 µM
TGI (786-0 renal): > 100 µM
TGI (SNB-19 CNS): > 100 µM
TGI (ACHN renal): > 100 µM

CC(c1cc(Cl)ccc1O)c1cc(Cl)ccc1O
GI50 (OVCAR-8 ovarian): 4.04 µM
TGI (OVCAR-8 ovarian): 19.9 µM
GI50 (CAKI-1 renal): 2610 nM
TGI (CAKI-1 renal): 16.4 µM
GI50 (KM12 colon): 3220 nM
TGI (KM12 colon): 10.2 µM
GI50 (SK-MEL-2 melanoma): 2980 nM
TGI (SK-MEL-2 melanoma): 7.23 µM
GI50 (786-0 renal): 15.7 µM
TGI (786-0 renal): 36.1 µM
GI50 (T-47D breast): 3850 nM
TGI (T-47D breast): 18.7 µM
GI50 (MCF7 breast): 3190 nM
TGI (MCF7 breast): 16.5 µM
GI50 (SNB-19 CNS): 8130 nM
TGI (SNB-19 CNS): 22.4 µM
GI50 (ACHN renal): 3990 nM
TGI (ACHN renal): 14.1 µM

CC1(C)CC(=O)C=C(/C=C/Sc2c(Cl)c(Cl)nc(Cl)c2Cl)C1
GI50 (OVCAR-8 ovarian): 19.3 µM
TGI (OVCAR-8 ovarian): 45 µM
GI50 (CAKI-1 renal): 2230 nM
TGI (CAKI-1 renal): 5.4 µM
GI50 (KM12 colon): 11600 nM
TGI (KM12 colon): 26.2 µM
GI50 (SK-MEL-2 melanoma): 70200 nM
TGI (SK-MEL-2 melanoma): > 100 µM
GI50 (786-0 renal): 3.92 µM
TGI (786-0 renal): 15.2 µM
GI50 (MCF7 breast): 2470 nM
TGI (MCF7 breast): 8.05 µM
GI50 (SNB-19 CNS): 15900 nM
TGI (SNB-19 CNS): 29.5 µM
GI50 (ACHN renal): 11100 nM
TGI (ACHN renal): 23.3 µM

CN1CC=C(c2cc(NC(=O)Nc3ccc(Oc4ccnc(NC(=O)C5CC5)c4)c(F)c3)cc(C(F)(F)F)c2)CC1
GI50 (CCRF-CEM leukemia): 126 nM
TGI (CCRF-CEM leukemia): 0.702 µM
GI50 (OVCAR-8 ovarian): 0.238 µM
TGI (OVCAR-8 ovarian): 5.12 µM
GI50 (KM12 colon): 33.2 nM
TGI (KM12 colon): 0.68 µM
GI50 (SK-MEL-2 melanoma): 1130 nM
TGI (SK-MEL-2 melanoma): 2.26 µM
GI50 (786-0 renal): 0.232 µM
TGI (786-0 renal): 0.908 µM
GI50 (T-47D breast): 1370 nM
TGI (T-47D breast): 3.99 µM
GI50 (MCF7 breast): 153 nM
TGI (MCF7 breast): 0.693 µM
GI50 (SNB-19 CNS): 227 nM
TGI (SNB-19 CNS): 1.48 µM
GI50 (ACHN renal): 968 nM
TGI (ACHN renal): 2.67 µM

O=C(CCC(=O)Nc1ccc(Cl)c(Cl)c1)CC(=O)c1ccc2ccccc2c1
TGI (CCRF-CEM leukemia): > 100 µM
TGI (OVCAR-8 ovarian): > 100 µM
TGI (CAKI-1 renal): > 100 µM
TGI (KM12 colon): > 100 µM
TGI (SK-MEL-2 melanoma): > 100 µM
TGI (786-0 renal): > 100 µM
TGI (SNB-19 CNS): > 100 µM
TGI (ACHN renal): > 100 µM

O=C(O)CN(c1ccccc1)S(=O)(=O)c1cccc([N+](=O)[O-])c1
TGI (CCRF-CEM leukemia): > 100 µM
TGI (OVCAR-8 ovarian): > 100 µM
TGI (CAKI-1 renal): > 100 µM
TGI (KM12 colon): > 100 µM
TGI (SK-MEL-2 melanoma): > 100 µM
TGI (786-0 renal): > 100 µM
TGI (SNB-19 CNS): > 100 µM
TGI (ACHN renal): > 100 µM

O=C(COc1ccccc1Cl)N1N=C(c2ccccc2)CC1(O)c1ccccc1 (centres undefined)
TGI (OVCAR-8 ovarian): 32.1 µM
TGI (CAKI-1 renal): 91.8 µM
TGI (KM12 colon): 41.8 µM
TGI (SK-MEL-2 melanoma): 36.8 µM
TGI (786-0 renal): 31 µM
TGI (SNB-19 CNS): 45.4 µM
TGI (ACHN renal): 55.7 µM

CCCCCCCCCCCCCC[n+]1ccccc1
GI50 (CCRF-CEM leukemia): 334 nM
TGI (CCRF-CEM leukemia): 1.99 µM
GI50 (CAKI-1 renal): 833 nM
TGI (CAKI-1 renal): 5.43 µM
GI50 (KM12 colon): 855 nM
TGI (KM12 colon): 2.25 µM
GI50 (SK-MEL-2 melanoma): 592 nM
TGI (SK-MEL-2 melanoma): 2.19 µM
GI50 (786-0 renal): 1.04 µM
TGI (786-0 renal): 2.42 µM
GI50 (T-47D breast): 486 nM
TGI (T-47D breast): 7.54 µM
GI50 (MCF7 breast): 489 nM
TGI (MCF7 breast): 2.66 µM
GI50 (ACHN renal): 1270 nM
TGI (ACHN renal): 6.18 µM

O=C(Cc1ccccc1[N+](=O)[O-])C(CO)c1ccccc1[N+](=O)[O-] (centres undefined)
TGI (CCRF-CEM leukemia): > 100 µM
TGI (OVCAR-8 ovarian): > 100 µM
TGI (CAKI-1 renal): > 100 µM
TGI (KM12 colon): > 100 µM
TGI (SK-MEL-2 melanoma): > 100 µM
TGI (786-0 renal): > 100 µM
TGI (SNB-19 CNS): > 100 µM
TGI (ACHN renal): > 100 µM

CC1CCC2C(C)C(=O)OC3OC4(C)CCC1C32OO4 (centres undefined)
TGI (CCRF-CEM leukemia): > 100 µM
GI50 (OVCAR-8 ovarian): > 100 µM
TGI (OVCAR-8 ovarian): > 100 µM
TGI (CAKI-1 renal): > 100 µM
GI50 (KM12 colon): > 100000 nM
TGI (KM12 colon): > 100 µM
TGI (SK-MEL-2 melanoma): > 100 µM
GI50 (786-0 renal): > 100 µM
TGI (786-0 renal): > 100 µM
GI50 (MCF7 breast): > 100000 nM
TGI (MCF7 breast): > 100 µM
GI50 (SNB-19 CNS): > 100000 nM
TGI (SNB-19 CNS): > 100 µM
GI50 (ACHN renal): > 100000 nM
TGI (ACHN renal): > 100 µM

Cc1ccc([Se](=C(C(=O)c2ccccc2)C(=O)c2ccccc2)c2ccc(C)cc2)cc1
TGI (OVCAR-8 ovarian): > 100 µM
TGI (CAKI-1 renal): 57.7 µM
TGI (KM12 colon): 44.1 µM
TGI (SK-MEL-2 melanoma): > 100 µM
TGI (786-0 renal): > 100 µM
TGI (T-47D breast): > 100 µM
TGI (MCF7 breast): > 100 µM
TGI (SNB-19 CNS): > 100 µM
TGI (ACHN renal): 77.8 µM
